Data on two molecules can be found in PMC3348258 (Nature, 2012).

Test [1] concerns BK α subunits coexpressed with construct D20A. The experiment in a line: Effect of pore blockers on β3a-mediated tail currents. The class given is cell-based, mSlo1 (mouse) with human β3a N-terminus on human β2. The conditions noted are these: 10 μM Ca^2+; TBA 2 or 10 mM; bbTBA 200 and 400 μM.
In a further test the target is open BK channels. The note with it: read-out: blocking affinity / Kd(0) for block of open BK channels; cited from earlier work.
A further test relates to Shaker K^+ channels. The conditions noted are these: cited from earlier work.

Where “and” joins values, the source holds several entries; their conditions need not be identical. Identical values can stand only once.

On to `CCCC[N+](CCCC)(CCCC)CCCC` [TBA, tetrabutylammonium], for which, in test [1], the “effect on β3a-mediated tail currents” value is “both peak tail current and tail current time constant were reduced”. Moreover, on open BK channels, the Kd was 900 µM and ~900 µM. `CC[N+](CC)(CC)CC` [TEA, tetraethylammonium]: in the test on Shaker K^+ channels, the “effect on inactivation onset” value is listed as “slow inactivation onset”.
